Test [1] concerns RS4; 11Bcl-2-V156D cells. Kind of test: CellTiter-Glo (CTG) cell viability assay in RS4;11-BCL2-V156D cells. The format is cell-based. As to conditions: 10% FBS, 3 days. On the procedure: (§1) RS4; 11Bcl-2-G101V, RS4; 11Bcl-2-D103E, RS4; 11Bcl-2-V156D and RS4; 11Bcl-2-G101V-D103E cells were obtained from Cobioer Biosciences. Cells were maintained in the RPMI-1640 medium with 10% FBS, 1% P/S and puromycin (1 μg/mL) at 37° C. and an atmosphere of 5% CO2.
(§2) • The effect of representative Compounds of the Disclosure on cell viability was determined using CellTiter-Glo® (CTG) luminescent cell viability assay (Promega, USA) according to the manufacturer's instructions. 95 μL of cell suspension (10000 cells/well) in culture medium were seeded into 96-well plates and cultured 4 hours. Each tested compound was serially diluted in blank culture medium, and 5 μL of the compound dilution was added to the corresponding well of the cell plate. After the addition of the tested compound, the cells were incubated at 37° C. in an atmosphere of 5% CO2 for 3 days. At the end of 3 days, 30 μL of CTG solution was added to each well of the plate and mix contents for 2 minutes on an orbital shaker. Allow the plate to incubate at room temperature for 15 mins to stabilize signal and record RLU on the Biotek plate reader. The readings were normalized to the vehicle cells, and the IC50 was calculated using GraphPad Prism 8 software.
On the technique in general: In ATP-based viability assays light output follows the ATP content of the culture.

The subject of test [2] is MV-4-11 cells. Kind of test: CCK-8 cell viability assay in MV-4-11 cells. The format is cell-based. As to conditions: 10% FBS, 3 days. A digest of the protocol:
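MV-4-11 cells (20000/well) were exposed to serially diluted compound for 3 days at 37 °C. Viability was then measured with CCK-8 (1–4 h, absorbance 450 nm). IC50 was derived from readings normalized to vehicle.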

Test [3] relates to RS4; 11Bcl-2-D103E cells. Description: CellTiter-Glo (CTG) cell viability assay in RS4;11-BCL2-D103E cells. It is filed as cell-based. As to conditions: 10% FBS, 3 days. On the procedure:
as §1, §2

Test [4] has as its system RS4; 11Bcl-2-G101V cells. Kind of test: CellTiter-Glo (CTG) cell viability assay in RS4;11-Bcl-2-G101V cells. It is filed as cell-based. As to conditions: 10% FBS, 3 days. A digest of the protocol:
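Engineered RS4;11 lines carrying Bcl-2 mutants, 10000 cells/well in RPMI-1640 with 10% FBS, exposed to serially diluted compound for 3 days at 37 °C, 5% CO2. Viability read by CellTiter-Glo luminescence, normalized to vehicle; IC50 calculated.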

Test [5] deals with Bcl-2 WT (Homo sapiens, UniProt P10415). Kind of test: Bcl-2 WT inhibition, fluorescence polarization (Flu-BIM tracer) binding assay. As to conditions: FP; 20 nM Bcl2, 5 nM Flu-BIM, 1 h incubation; read-out: Bcl-2 w.t. (FP). Background: Fluorescence polarisation rises when a labelled molecule tumbles more slowly, as on binding a larger partner.
Bcl-2 WT, sequence (P10415 whole entry): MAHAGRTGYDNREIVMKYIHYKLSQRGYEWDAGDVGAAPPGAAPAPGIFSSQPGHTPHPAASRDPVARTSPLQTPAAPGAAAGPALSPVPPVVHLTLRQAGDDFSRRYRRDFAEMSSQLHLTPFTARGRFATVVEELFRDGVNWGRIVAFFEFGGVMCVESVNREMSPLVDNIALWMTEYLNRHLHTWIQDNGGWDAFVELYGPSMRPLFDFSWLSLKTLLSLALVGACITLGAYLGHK

Structures are written as SMILES.

Regarding `CC1(C)CCC(CN2CCN(c3ccc(C(=O)NS(=O)(=O)c4ccc(NCC5CCOCC5)c([N+](=O)[O-])c4)c(Oc4cnc5[nH]ccc5c4)c3)CC2)=C(c2ccc(Cl)cc2)C1` [ABT-199, Venetoclax, reference compound], the IC50 in test [1] (72 h) was found to be 671 nM; in test [2] (Homo sapiens, MV4-11, 72 h), 38 nM; in test [3] (72 h), 1510 nM; in test [4] (72 h) it was 2690 nM.

Turning to `O=C(NS(=O)(=O)c1ccc(NC[C@H]2COCCO2)c([N+](=O)[O-])c1)c1ccc(N2CCN(CC3=C(c4ccc(Cl)cc4)CC4(CCC4)CC3)CC2)cc1Oc1cnc2[nH]ccc2c1` [APG-2575], the IC50 in test [1] is 324 nM; in test [2], 34 nM; in test [3], 516 nM; in test [4] it was 2430 nM.

For the molecule `CC1(C)CCC(CN2CCN(c3ccc(C(=O)NS(=O)(=O)c4ccc(NC[C@H]5CC[C@](C)(O)CC5)c([N+](=O)[O-])c4)c(Oc4cnc5[nH]ccc5c4)c3)CC2)=C(c2cc(-c3c(F)cc(C(C)(C)O)cc3F)cs2)C1` [Example 63, 2-((1H-pyrrolo[2,3-b]pyridin-5-yl)oxy)-4-(4-((2-(4-(2,6-difluoro-4-(2-hydroxypropan-2-yl)phenyl)thiophen-2-yl)-4,4-dimethylcyclohex-1-en-1-yl)methyl)piperazin-1-yl)-N-((4-((((1r,4r)-4-hydroxy-4-methylcyclohexyl)methyl)amino)-3-nitrophenyl)sulfonyl)benzamide], the IC50 worked out at 19 nM in test [1] (72 h); 16.3 nM in test [5]; 9 nM in test [2] (Homo sapiens, MV4-11, 72 h); 183 nM in test [3] (72 h); 14 nM in test [4] (72 h).

As to `CC1(C)CCC(CN2CCN(c3ccc(C(=O)NS(=O)(=O)c4ccc(NC[C@H]5CC[C@](C)(O)CC5)c([N+](=O)[O-])c4)c(Oc4cnc5[nH]ccc5c4)c3)CC2)=C(c2cc(-c3cc(C(C)(C)O)ccc3F)cs2)C1` [Example 75, 2-((1H-pyrrolo[2,3-b]pyridin-5-yl)oxy)-4-(4-((2-(4-(2-fluoro-5-(2-hydroxypropan-2-yl)phenyl)thiophen-2-yl)-4,4-dimethylcyclohex-1-en-1-yl)methyl)piperazin-1-yl)-N-((4-((((1r,4r)-4-hydroxy-4-methylcyclohexyl)methyl)amino)-3-nitrophenyl)sulfonyl)benzamide], the IC50 stood at 19.2 nM in test [5]; 118 nM in test [2] (Homo sapiens, MV4-11, 72 h); 1580 nM in test [4] (72 h).

`CC1(C)CCC(CN2CCN(c3ccc(C(=O)NS(=O)(=O)c4ccc(NC[C@H]5CC[C@](C)(O)CC5)c([N+](=O)[O-])c4)c(Oc4cnc5[nH]ccc5c4)c3)CC2)=C(c2cc(-c3ccc(C(C)(O)C(F)(F)F)cc3F)cs2)C1` (stereo partly drawn) [Example 78, 2-((1H-pyrrolo[2,3-b]pyridin-5-yl)oxy)-4-(4-((2-(4-(2-fluoro-4-(1,1,1-trifluoro-2-hydroxypropan-2-yl)phenyl)thiophen-2-yl)-4,4-dimethylcyclohex-1-en-1-yl)methyl)piperazin-1-yl)-N-((4-((((1r,4r)-4-hydroxy-4-methylcyclohexyl)methyl)amino)-3-nitrophenyl)sulfonyl)benzamide]: the IC50 in test [5] stood at 16.8 nM; in test [2] (Homo sapiens, MV4-11, 72 h) it was 59 nM; in test [4] (72 h), 580 nM.

On to `CC1(C)CCC(CN2CCN(c3ccc(C(=O)NS(=O)(=O)c4ccc(NC[C@H]5CC[C@](C)(O)CC5)c([N+](=O)[O-])c4)c(Oc4cnc5[nH]ccc5c4)c3)CC2)=C(c2cc(-c3ccc4c(c3)CCC4(C)O)cs2)C1` (stereo partly drawn) [Example 79, 2-((1H-pyrrolo[2,3-b]pyridin-5-yl)oxy)-4-(4-((2-(4-(1-hydroxy-1-methyl-2,3-dihydro-1H-inden-5-yl)thiophen-2-yl)-4,4-dimethylcyclohex-1-en-1-yl)methyl)piperazin-1-yl)-N-((4-((((1r,4r)-4-hydroxy-4-methylcyclohexyl)methyl)amino)-3-nitrophenyl)sulfonyl)benzamide], for which the IC50 in test [5] came out at 15.8 nM; in test [2] (Homo sapiens, MV4-11, 72 h), 11 nM; in test [4] (72 h) it was 170 nM.

For `CC(=O)NC(C)(C)c1cc(F)c(-c2csc(C3=C(CN4CCN(c5ccc(C(=O)NS(=O)(=O)c6ccc(NC[C@H]7CC[C@](C)(O)CC7)c([N+](=O)[O-])c6)c(Oc6cnc7[nH]ccc7c6)c5)CC4)CCC(C)(C)C3)c2)c(F)c1` [Example 80, 2-((1H-pyrrolo[2,3-b]pyridin-5-yl)oxy)-4-(4-((2-(4-(4-(2-acetamidopropan-2-yl)-2,6-difluorophenyl)thiophen-2-yl)-4,4-dimethylcyclohex-1-en-1-yl)methyl)piperazin-1-yl)-N-((4-((((1r,4r)-4-hydroxy-4-methylcyclohexyl)methyl)amino)-3-nitrophenyl)sulfonyl)benzamide], the IC50 in test [5] came out at 15.6 nM; in test [2] (Homo sapiens, MV4-11, 72 h) it was 111 nM; in test [4] (72 h), 420 nM.

In the case of `Cc1sc(C2=C(CN3CCN(c4ccc(C(=O)NS(=O)(=O)c5ccc(NC[C@H]6CC[C@](C)(O)CC6)c([N+](=O)[O-])c5)c(Oc5cnc6[nH]ccc6c5)c4)CC3)CCC(C)(C)C2)cc1-c1c(F)cc(C(C)(C)O)cc1F` [Example 81, 2-((1H-pyrrolo[2,3-b]pyridin-5-yl)oxy)-4-(4-((2-(4-(2,6-difluoro-4-(2-hydroxypropan-2-yl)phenyl)-5-methylthiophen-2-yl)-4,4-dimethylcyclohex-1-en-1-yl)methyl)piperazin-1-yl)-N-((4-((((1r,4r)-4-hydroxy-4-methylcyclohexyl)methyl)amino)-3-nitrophenyl)sulfonyl)benzamide], the IC50 in test [5] is 34.6 nM; in test [2] (Homo sapiens, MV4-11, 72 h), 270 nM; in test [4] (72 h), 1710 nM.

Consider `CC1(C)CCC(CN2CCN(c3ccc(C(=O)NS(=O)(=O)c4ccc(NC[C@H]5CC[C@](C)(O)CC5)c([N+](=O)[O-])c4)c(Oc4cnc5[nH]ccc5c4)c3)CC2)=C(c2cc(-c3c(F)cc(C(C)(C)C(=O)O)cc3F)cs2)C1` [Example 82, 2-(4-(5-(2-((4-(3-((1H-pyrrolo[2,3-b]pyridin-5-yl)oxy)-4-(((4-((((1r,4r)-4-hydroxy-4-methylcyclohexyl)methyl)amino)-3-nitrophenyl)sulfonyl)carbamoyl)phenyl)piperazin-1-yl)methyl)-5,5-dimethylcyclohex-1-en-1-yl)thiophen-3-yl)-3,5-difluorophenyl)-2-methylpropanoic acid], for which the IC50 in test [5] was determined as 18.1 nM; in test [2] (Homo sapiens, MV4-11, 72 h), 114 nM; in test [4] (72 h), 1270 nM.

In the case of `C[C@@H](O)c1cc(F)c(-c2csc(C3=C(CN4CCN(c5ccc(C(=O)NS(=O)(=O)c6ccc(NC[C@H]7CC[C@](C)(O)CC7)c([N+](=O)[O-])c6)c(Oc6cnc7[nH]ccc7c6)c5)CC4)CCC(C)(C)C3)c2)c(F)c1` [Example 83, 2-((1H-pyrrolo[2,3-b]pyridin-5-yl)oxy)-4-(4-((2-(4-(2,6-difluoro-4-((R)-1-hydroxyethyl)phenyl)thiophen-2-yl)-4,4-dimethylcyclohex-1-en-1-yl)methyl)piperazin-1-yl)-N-((4-((((1r,4r)-4-hydroxy-4-methylcyclohexyl)methyl)amino)-3-nitrophenyl)sulfonyl)benzamide], the IC50 in test [1] (72 h) was determined as 8 nM; in test [2] (Homo sapiens, MV4-11, 72 h), 2 nM; in test [3] (72 h) it was 48 nM; in test [4] (72 h) it was 20 nM.

For the molecule `C[C@H](O)c1cc(F)c(-c2csc(C3=C(CN4CCN(c5ccc(C(=O)NS(=O)(=O)c6ccc(NC[C@H]7CC[C@](C)(O)CC7)c([N+](=O)[O-])c6)c(Oc6cnc7[nH]ccc7c6)c5)CC4)CCC(C)(C)C3)c2)c(F)c1` [Example 84, 2-((1H-pyrrolo[2,3-b]pyridin-5-yl)oxy)-4-(4-((2-(4-(2,6-difluoro-4-((S)-1-hydroxyethyl)phenyl)thiophen-2-yl)-4,4-dimethylcyclohex-1-en-1-yl)methyl)piperazin-1-yl)-N-((4-((((1r,4r)-4-hydroxy-4-methylcyclohexyl)methyl)amino)-3-nitrophenyl)sulfonyl)benzamide], the IC50 in test [1] (72 h) was found to be 8 nM; in test [2] (Homo sapiens, MV4-11, 72 h), 7 nM; in test [3] (72 h), 98 nM; in test [4] (72 h), 70 nM.

These data come from US12577245B2, “Sulfonyl benzamide derivatives as Bcl-2 inhibitors” (ASCENTAGE PHARMA (SUZHOU) CO., LTD., priority 2021, dated 2026).
